Patent US20240254132A1, “COMPOUNDS, COMPOSITIONS AND METHODS” (Denali Therapeutics Inc., priority 2021, published 2024)

Test system: IL-1β secretion, THP-1 cells
Assay: IL-1β secretion assay in PMA-differentiated THP-1 cells (LPS + nigericin stimulation, IL-1β ELISA)
Assay type: cell-based
Settings: LPS 25 ng/mL, IL-1β by ELISA
Protocol: Compounds as provided herein were tested in the following assay. Cell culture medium employed contained RPMI 1640 medium (89%), FBS (10%), Pen/Strep (1%), and 2-mercaptoethanol (0.05 mm). Freezing medium was made up of 90% FBS and 10% DMSO. THP-1 cells were removed from the liquid nitrogen and placed into a 37° C. water bath to thaw, until signs of ice dissipated. The cells were then added to 9 mL of warm cell culture medium and centrifuged for 5 minutes at 1000 rpm. The supernatant was discarded, and the cells were resuspended in new cell culture medium. THP-1 cells were then split and cultured in the cell culture medium, being passaged every 2-3 days with the cell density will be maintained between 5×10^5 and 1.5×10^6 viable cells/mL.
Procedure for […], Secretion Assay in 384-Well Plates
PMA was dissolved in DMSO to make a stock solution at 5 mg/mL and stored in 10 μl aliquots at −20° C. for single use. PMA is added to normal growth medium. LPS was diluted with 1 mL of water solution to provide a 1 mg/mL stock solution and stored in 15 μl aliquots at −20° C. for single use. Nigericin is diluted in ice cold 100% ethanol to 5 mg/mL (6.7 mM) and stored in 75 μL aliquots at −20° C. for single use. Serum-free media contains RPMI 1640 medium (99%), Pen/Strep (1%), and 2-mercaptoethanol (0.05 mM). The two control conditions used to qualify and normalize test compound dose-response curves were as follows: High Control=25 ng/mL LPS, 5 μM Nigericin, 0.5% DMSO, Low Control=25 ng/mL, LPS, 0.5% DMSO.
THP-1 cells were diluted to provide a suspension at a concentration of 1.0×10^6 cells/mL with the total volume of suspension required to enable the desired number of assay plates. The growth media was supplemented with PMA (5 ng/mL final concentration) and the cells were incubated at 37° C. under a humidified atmosphere of 5% CO2 for 40 h.
All media was carefully aspirated from each culture flask. The cells were washed carefully with 1×DPBS. The cells were then briefly digested with trypsin LE for 5 minutes at 23° C. and immediately resuspended in cell growth media. After resuspension, the cells were centrifuged at 1000 rpm for 3 minutes and the supernatant was discarded. The cells were resuspended in DPBS and once again centrifuged at 1000 rpm for 5 minutes. The supernatant was discarded and the cell pellet was resuspended in serum-free media supplemented with LPS (25 ng/mL final concentration) to enable the distribution of 30K THP-1 cells within 45 μL of media into each well of 384-well PDL-coated plates. The 384-well plates were then incubated at 37° C. under a humidified atmosphere of 5% CO2 for 2 h. Following this period, test compounds were dispensed by Tecan across the desired concentration range with all wells normalized to a final 0.5% DMSO concentration. The plates were then incubated at 37° C. under a humidified atmosphere of 5% CO2 for 1 h. Following this period, 5 μL of the 5 mg/mL nigericin stock solution was added to each of the appropriate wells and plates were centrifuged at 1000 rpm for 30 seconds. The plates were the immediately reintroduced to the incubator at 37° C. under a humidified atmosphere of 5% CO2 for 2 h. After this time, 35 μL/well of supernatant was collected and transferred into v-bottom plate and centrifuged at 1000 rpm for 1 minute. These supernatant aliquots were analyzed using an IL-Iβ detection kit as described below. If needed, the test samples could be snap frozen and stored at −80° C. until analyzed.
To prepare each ELISA plate, capture antibody (mAb Mt175) was diluted with PBS to a final concentration of 2 μg/mL and then 20 μL of this solution was added to each well of the ELISA plate. Each plate was allowed to incubate overnight at 4° C. The next day, the capture antibody solution was removed and discarded. Each ELISA plate was washed 4 times with PBST followed by the addition of 25 μL/well of blocking buffer (Licor-927-40010) supplemented with 0.1% Tween 20. […]

[1] = Homo sapiens, THP-1, class symbol
[2] = Homo sapiens, THP-1, numeric value

| IC50 [1] [nM] | IC50 (numeric value) [nM] | IC50 (class symbol) [nM] | IC50 [2] [nM] | Structure (SMILES) |
| --- | --- | --- | --- | --- |
| < 10000 | 286 | – | – | C[C@H]1C[C@@]12C(=O)N(CC(=O)Nc1ncc(F)cn1)C(=O)c1ccc(Br)cc12 (single isomer, unassigned) [Example 13, N-(5-fluoropyrimidin-2-yl)-2-[(1r,2s)-6′-bromo-2-methyl-1′,3′-dioxospiro[cyclopropane-1,4′-isoquinoline]-2′-yl]acetamide] |
| – | 6660 | < 10000 | – | C[C@H]1C[C@@]12C(=O)N(CC(=O)Nc1ncc(F)cn1)C(=O)c1ccc(Br)cc12 (single isomer, unassigned) [Example 14, N-(5-fluoropyrimidin-2-yl)-2-[(1r,2s)-6′-bromo-2-methyl-1′,3′-dioxospiro[cyclopropane-1,4′-isoquinoline]-2′-yl]acetamide] |
| < 10000 | – | – | 269 | CC1(C)C(=O)N(CC(=O)Nc2ncc(F)cn2)C(=O)c2ccc(Br)cc21 [Example 7] |
| < 10000 | – | – | 388 | O=C(CN1C(=O)c2ccc(Br)cc2C2(CCC2)C1=O)Nc1ncc(F)cn1 [Example 8, 2-(6′-bromo-1′,3′-dioxospiro[cyclobutane-1,4′-isoquinoline]-2′-yl)-N-(5-fluoropyrimidin-2-yl)acetamide] |
| < 10000 | – | – | 307 | O=C(CN1C(=O)c2ccc(Br)cc2C2(CC2)C1=O)N[C@@H]1CCCN(C2CCC2)C1 [Example 9, 2-(6′-bromo-1′,3′-dioxospiro[cyclopropane-1,4′-isoquinoline]-2′-yl)-N-[(3R)-1-cyclobutylpiperidin-3-yl]acetamide] |
| 10000 to 15000 | – | – | 13100 | O=C(CN1C(=O)c2ccc(Br)cc2C2(CC(F)(F)C2)C1=O)Nc1ncc(F)cn1 [Example 10, 2-(6′-bromo-1,1-difluoro-1′,3′-dioxospiro[cyclobutane-3,4′-isoquinoline]-2′-yl)-N-(5-fluoropyrimidin-2-yl)acetamide] |
| < 10000 | – | – | 332 | O=C(CN1C(=O)c2ccc(C3CC3)c(F)c2C2(CC2)C1=O)Nc1ncc(F)cn1 [Example 11, 2-(6′-cyclopropyl-5′-fluoro-1′,3′-dioxospiro[cyclopropane-1,4′-isoquinoline]-2′-yl)-N-(5-fluoropyrimidin-2-yl)acetamide] |
| < 10000 | – | – | 1360 | O=C(CN1C(=O)c2ccc(Br)cc2C2(CCCC2)C1=O)Nc1ncc(F)cn1 [Example 12, 2-(6′-bromo-1′,3′-dioxospiro[cyclopentane-1,4′-isoquinoline]-2′-yl)-N-(5-fluoropyrimidin-2-yl)acetamide] |
| < 10000 | – | – | 893 | O=C(CN1C(=O)c2ccc(C(F)(F)F)cc2C2(CC2)C1=O)Nc1ncc(F)cn1 [Example 15, 2-[1′,3′-dioxo-6′-(trifluoromethyl)spiro[cyclopropane-1,4′-isoquinoline]-2′-yl]-N-(5-fluoropyrimidin-2-yl)acetamide] |
| < 10000 | – | – | 918 | O=C(CN1C(=O)c2ccc(C(F)(F)F)c(F)c2C2(CC2)C1=O)Nc1ncc(F)cn1 [Example 16, 2-[5′-fluoro-1′,3′-dioxo-6′-(trifluoromethyl)spiro[cyclopropane-1,4′-isoquinoline]-2′-yl]-N-(5-fluoropyrimidin-2-yl)acetamide] |
| < 10000 | – | – | 2400 | CC1(C(F)(F)F)C(=O)N(CC(=O)Nc2ncc(F)cn2)C(=O)c2ccc(Br)cc21 (stereo not shown) [Example 17, 2-[6-bromo-4-methyl-1,3-dioxo-4-(trifluoromethyl)isoquinolin-2-yl]-N-(5-fluoropyrimidin-2-yl)acetamide] |
| < 10000 | – | – | 331 | N#Cc1cnc(NC(=O)CN2C(=O)c3ccc(Br)c(F)c3C3(CC3)C2=O)c(F)c1 [Example 18, 2-(6′-bromo-5′-fluoro-1′,3′-dioxospiro[cyclopropane-1,4′-isoquinoline]-2′-yl)-N-(5-cyano-3-fluoropyridin-2-yl)acetamide] |
| < 10000 | – | – | 4460 | O=C(CN1C(=O)c2ccc(Br)cc2C2(COC2)C1=O)Nc1ncc(F)cn1 [Example 19, 2-(6-bromo-1,3-dioxospiro[isoquinoline-4,3′-oxetane]-2-yl)-N-(5-fluoropyrimidin-2-yl)acetamide] |
| < 10000 | – | – | 261 | Cc1cnc(NC(=O)CN2C(=O)c3ccc(Br)c(F)c3C3(CC3)C2=O)nc1 [Example 20, 2-(6′-bromo-5′-fluoro-1′,3′-dioxospiro[cyclopropane-1,4′-isoquinoline]-2′-yl)-N-(5-methylpyrimidin-2-yl)acetamide] |
| < 10000 | – | – | 936 | CC(C(=O)Nc1ncc(F)cn1)N1C(=O)c2ccc(Br)c(F)c2C2(CC2)C1=O (stereo not shown) [Example 21, 2-(6′-bromo-5′-fluoro-1′,3′-dioxospiro[cyclopropane-1,4′-isoquinoline]-2′-yl)-N-(5-fluoropyrimidin-2-yl)propanamide] |
| < 10000 | – | – | 8080 | O=C1c2ccc(Br)cc2C2(CC2)C(=O)N1C1(C(=O)Nc2ncc(F)cn2)CC1 [Example 22, 1-(6′-bromo-1′,3′-dioxospiro[cyclopropane-1,4′-isoquinoline]-2′-yl)-N-(5-fluoropyrimidin-2-yl)cyclopropane-1-carboxamide] |
| < 10000 | – | – | 2170 | CCC(C(=O)Nc1ncc(F)cn1)N1C(=O)c2ccc(Br)cc2C2(CC2)C1=O (stereo not shown) [Example 23, 2-(6′-bromo-1′,3′-dioxospiro[cyclopropane-1,4′-isoquinoline]-2′-yl)-N-(5-fluoropyrimidin-2-yl)butanamide] |
| < 10000 | – | – | 88 | O=C(CN1C(=O)c2ccc(Br)c(F)c2C2(CC2)C1=O)Nc1ncc2cn[nH]c2n1 [Example 24, 2-(6′-bromo-5′-fluoro-1′,3′-dioxospiro[cyclopropane-1,4′-isoquinoline]-2′-yl)-N-(1H-pyrazolo[3,4-d]pyrimidin-6-yl)acetamide] |
| < 10000 | – | – | 391 | CC1CC12C(=O)N(CC(=O)Nc1ncc(F)cn1)C(=O)c1ccc(Br)cc12 (stereo not shown) [Example 25, 2-(6′-bromo-2-methyl-1′,3′-dioxospiro[cyclopropane-1,4′-isoquinoline]-2′-yl)-N-(5-fluoropyrimidin-2-yl)acetamide] |
| < 10000 | – | – | 90 | N#Cc1cnc(NC(=O)CN2C(=O)c3ccc(Br)c(F)c3C3(CC3)C2=O)nc1 [Example 26, 2-(6′-bromo-5′-fluoro-1′,3′-dioxospiro[cyclopropane-1,4′-isoquinoline]-2′-yl)-N-(5-cyanopyrimidin-2-yl)acetamide] |
| < 10000 | – | – | 99 | O=C(CN1C(=O)c2ccc(Br)c(F)c2C2(CC2)C1=O)Nc1ncc(F)cn1 [Example 29, 2-(6′-bromo-5′-fluoro-1′,3′-dioxospiro[cyclopropane-1,4′-isoquinoline]-2′-yl)-N-(5-fluoropyrimidin-2-yl)acetamide] |
| < 10000 | – | – | 208 | N#Cc1cnc(NC(=O)CN2C(=O)c3ccc(Br)cc3C3(CC3)C2=O)nc1 [Example 31, 2-(6′-bromo-1′,3′-dioxospiro[cyclopropane-1,4′-isoquinoline]-2′-yl)-N-(5-cyanopyrimidin-2-yl)acetamide] |
| < 10000 | – | – | 137 | O=C(CN1C(=O)c2ccc(Br)cc2C2(CC2)C1=O)Nc1ncc(Cl)cn1 [Example 32, 2-(6′-bromo-1′,3′-dioxospiro[cyclopropane-1,4′-isoquinoline]-2′-yl)-N-(5-chloropyrimidin-2-yl)acetamide] |
